Source: the supplement of paper PMC10307832

How the values were obtained:
Experiment in all cases: relative viability (nuclei count vs DMSO), 5 days (fraction); higher = more cells survive
[1] = compound: Cn1c(Nc2ccc(C(F)(F)F)cc2)nc2cc(Oc3ccnc(-c4ncc(C(F)(F)F)[nH]4)c3)ccc21 [RAF265] + COc1cc2c(Oc3ccc(NC(=O)C4(C(=O)Nc5ccc(F)cc5)CC4)cc3F)ccnc2cc1OCCCN1CCOCC1 [Foretinib] (partner 0.25 µM)
Summary of the method: (§1)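 The day after seeding in 1536-well plates, lung cancer cell lines were treated by pin tool with a single drug, or with a fixed anchor-drug dose together with five library-drug doses (not always all listed) in √10 steps. After 5 days, a combined fix-and-stain solution (final 0.05% Triton X-100, 1% formaldehyde, 1 ug/ml Hoechst) was added. Nuclei counted on 4× images gave relative viability as treated counts over vehicle counts, reported as the median of duplicate plates.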

[2] = compound: C1=CC=C2C(=C1)C=CC(=C2SSC3=C(C=CC4=CC=CC=C43)O)O [IPA-3] + COc1cccc2cc(-c3nc([C@H]4CC[C@H](C(=O)O)CC4)n4ncnc(N)c34)[nH]c12 [OSI-027] (partner 0.5 µM)
Summary of the method: as §1

[3] = compound: C1=CC=C2C(=C1)C=CC(=C2SSC3=C(C=CC4=CC=CC=C43)O)O [IPA-3] + Nc1ncn([C@H]2C[C@H](O)[C@@H](CO)O2)c(=O)n1 [Decitabine] (partner 2 µM)
Summary of the method: as §1

[4] = compound: Cc1ccc(-n2nc(C(C)(C)C)cc2NC(=O)Nc2ccc(OCCN3CCOCC3)c3ccccc23)cc1 [Doramapimod] + Nc1ncn([C@H]2C[C@H](O)[C@@H](CO)O2)c(=O)n1 [Decitabine] (partner 2 µM)
Summary of the method: as §1

Cell Line | relative viability ([1]; first compound 0.01 µM) | relative viability ([1]; first compound 0.03162 µM) | relative viability ([1]; first compound 0.1 µM) | relative viability ([1]; first compound 0.3162 µM) | relative viability ([1]; first compound 1 µM) | relative viability ([2]; first compound 0.2 µM) | relative viability ([2]; first compound 0.6325 µM) | relative viability ([2]; first compound 2 µM) | relative viability ([2]; first compound 6.325 µM) | relative viability ([2]; first compound 20 µM) | relative viability ([3]; first compound 0.2 µM) | relative viability ([3]; first compound 0.6325 µM) | relative viability ([3]; first compound 2 µM) | relative viability ([3]; first compound 6.325 µM) | relative viability ([3]; first compound 20 µM) | relative viability ([4]; first compound 0.02 µM) | relative viability ([4]; first compound 0.06325 µM) | relative viability ([4]; first compound 0.2 µM) | relative viability ([4]; first compound 0.6325 µM) | relative viability ([4]; first compound 2 µM)
EBC-1 | 0.101 | 0.112 | 0.0984 | 0.107 | 0.113 | – | – | – | – | – | – | – | – | – | – | – | – | – | – | –
EKVX | 1.21 | 0.676 | 0.963 | 0.419 | 0.715 | 0.649 | 0.68 | 0.738 | 0.728 | 0.786 | 0.342 | 0.396 | 0.26 | 0.297 | 0.332 | 0.404 | 0.313 | 0.289 | 0.31 | 0.239
EMC-BAC-2 | 1.09 | 0.741 | 0.753 | 0.685 | 0.276 | 0.435 | 0.379 | 0.367 | 0.482 | 0.438 | 1.02 | 0.967 | 0.958 | 0.819 | 1.07 | 1 | 0.905 | 0.99 | 0.955 | 0.858
EPLC-272H | 0.721 | 0.39 | 0.506 | 0.208 | 0.135 | 0.293 | 0.281 | 0.236 | 0.264 | 0.335 | 0.406 | 0.397 | 0.325 | 0.38 | 0.397 | 0.377 | 0.389 | 0.361 | – | 0.394
H3255 | 0.88 | 0.88 | 0.847 | – | 0.55 | 0.609 | 0.566 | 0.677 | 0.508 | 0.62 | 0.634 | 0.571 | 0.577 | 0.548 | 0.632 | 0.688 | 0.581 | 0.767 | – | 0.569
HARA | 0.573 | 0.777 | 0.931 | 0.53 | 0.38 | 0.605 | 0.45 | 0.479 | 0.396 | 0.606 | 0.474 | 0.517 | 0.544 | 0.578 | 0.621 | 0.52 | 0.463 | 0.49 | 0.574 | 0.42
HCC-15 | 1.03 | 1.04 | 0.991 | 0.883 | 0.673 | 0.765 | 0.685 | 0.636 | 0.688 | 0.718 | 0.754 | 0.572 | 0.612 | 0.61 | 0.629 | 0.64 | 0.621 | 0.63 | 0.645 | 0.681
HCC-44 | – | – | – | – | – | 0.516 | 0.704 | 0.489 | 0.482 | 0.484 | 0.951 | 0.943 | 0.879 | 0.924 | 0.846 | 0.958 | 0.984 | 1.03 | 0.945 | 0.978
HCC-78 | 0.512 | 0.587 | 0.583 | 0.617 | 0.526 | 0.419 | 0.407 | 0.641 | 0.382 | 0.353 | 0.74 | 0.665 | 0.618 | 0.548 | 0.649 | 0.753 | 0.794 | 0.635 | 0.609 | 0.624
